Source: US7157078B2, “Devices and methods for eliminating termite colonies” (The University of Florida Research Foundation, Inc., priority 2001, dated 2007)

Columns and labels:
[1] = tested on: termites from the genus/specie Reticulitermes flavipes or Coptotermes formosanus; assay: Termiticide activity (Reference Example 3); format: in vivo; conditions: 20 termites per well; for DTD50 (number of days until 50% death): 0.5% compound on Whatman #1 filter paper, triplicate; for termite death (printed in DTD50 column): 0.5% compound on filter paper
Procedure: The tests, run in triplicate, are set up in three wells of a 6-well polystyrene microtiter plate (3 wells are empty). Four circles of either 3.2 cm Whatman #1 filter paper (cellulose) for the food controls and tests on compounds, or 3.2 cm Whatman GF/C glass microfibre filters (borosilicate glass) for the no-food controls are stacked in each well. For the food controls, 600 microliters of water are added to each wen. For the no-food controls 1200 microliters of water are added to those wells. If the test compounds are water soluble, they are added to the wells in 600 microliters of water to deliver 0.5% compound. Water insoluble test compounds are added to the wells in a solvent in which they are soluble to deliver 0.5% compound, the solvent is evaporated, and 600 microliters of water added per well.
Termiticidal activity for a compound is measured using termites from the genus/specie Reticulitermes flavipes or Coptotermes formosanus. The termites are added in groups of 20 per well. Every 34 days the termites are counted. The number of days until 50% death (DTD50) and 100% death for termites is determined. These values for termites in the wells containing test compounds are compared to the food and no-food controls to determine which compounds display termiticidal activity.
Various compounds were analyzed by the method of Reference Example 3.

termites = assay: Termiticide preference test (Reference Example 4); format: in vivo; conditions: 100 termites per dish, about 7 days
Procedure: The test is performed in 100 millimeter Petri dishes into which 20 grams of washed sand and 2 milliliters of water are distributed. Six circles (three plain and thee treated with the compound of interest) of Whatman #1 filter paper (15 millimeters) are used as food. The treated circles are prepared by pipetting a small volume (approximately 25 microliters) of a solution of the compound in an appropriate solvent onto the filter paper circles, and then evaporating the solvent.
The filter paper circles are arranged in the dish in two rows using an alternating pattern of treated and untreated. One hundred termites are then added to the dish. The test is run for about 7 days to determine if any eating preference is seen between the treated and untreated filter paper circles.

SMILES | DTD50 (number of days until 50% death) [1] | other results
OCC1OC(O)(C(F)(F)F)C(O)C(O)C1O (stereo not drawn) | 41 days | 
OCC1OC(F)C(F)C(O)C1O (stereo not drawn) | 33 days | 
OCC1OC(OC2C(CO)OC(Oc3ccccc3)C(O)C2O)C(O)C(O)C1O (stereo not drawn) | 27 days | 
CC(C)(C1CCC(O)CC1)C1CCC(O)CC1 (stereo not drawn) [CAS No. 80-04-6] | 62 days | preference test result (treated vs untreated filter paper circles) (termites): passes the preference test
CC(C)(c1ccc(O)cc1)c1ccc(O)cc1 [CAS No. 80-05-7] | 42 days | 
OC[C@H]1O[C@@H](Oc2ccccc2)[C@H](O)[C@@H](O)[C@@H]1O [CAS No. 1464-44-4, Phenyl-beta-D-glycoside] | 15 days | 
O=C(Nc1ccccc1)c1cccnc1 [CAS No. 1752-96-1] | 80 days | 
CC1(C)CC(O)CC(C)(C)N1O [CAS No. 2226-96-2] | 32 days | 
Cc1nc2cc(C)c(C)cc2[nH]1 [CAS No. 3363-56-2] | 63 days | 
CC(C)NCC(O)COc1cccc2ccccc12 (stereo not drawn) [CAS No. 4199-10-4] | 77 days | 
COc1ccc(NC(=O)CC(C)=O)cc1 [CAS No. 5437-98-9] | 31 days | 
Cc1cc(C(C)(C)c2cc(C)c(O)c(C)c2)cc(C)c1O [CAS No. 5613-46-7] |  | termite death (printed in DTD50 column) ([1]; at day 73): 42% atday 73
CC(=O)c1ccc(-n2ccnc2)cc1 [CAS No. 10041-06-2] | 35 days | 
CC(=O)Oc1ccc(C(C)(C)c2ccc(OC(C)=O)cc2)cc1 [CAS No. 10192-62-8] | 70 days | 
COC(=O)C[S+]([O-])c1ccccc1 (stereo not drawn) [CAS No. 14090-83-6] | 35 days | 
O=c1c2ccccc2nnn1O [CAS No. 28230-32-2] | 80 days | 
NC1CCN(Cc2ccccc2)CC1 [CAS No. 50541-93-0] | 59 days | 
O=[N+]([O-])c1ccc(OC2OC(CO)C(OC3OC(CO)C(O)C(O)C3O)C(O)C2F)c([N+](=O)[O-])c1 (stereo not drawn) [CAS No. 154862-23-4] | 66 days | 
O=S(=O)(NCCc1c[nH]cn1)c1ccccc1 [CAS No. 195052-64-3] |  | termite death (printed in DTD50 column) ([1]; by day 53): 48%by day53
O=[N+]([O-])c1ccc(OC2OC(CO)C(OC3OC(CO)C(OC4OC(CO)C(O)C(O)C4O)C(O)C3O)C(O)C2F)c([N+](=O)[O-])c1 (stereo not drawn) [CAS No. 213193-76-1] | 60 days | 
